Laboratory results as given in patent US20220378802A1, “TREATMENT OF ALCOHOLIC HEPATITIS” (Durect Corporation, priority 2019, published 2022).
Entries after “also recorded” stand apart in the source; their conditions may differ.

Tests used:
[1] = Pharmacokinetics of 25HC3S in healthy subjects (earlier study); format: in vivo, human; conditions: Healthy subjects (N = 5), single dose of 150 mg
From the text: The clearance of 25HC3S sodium was decreased by 80% in AH patients as compared to that in healthy subjects from an earlier study. A comparison of the pharmacokinetic parameters of 25HC3S administered to healthy subjects versus subjects with alcoholic hepatitis is summarized in the following Table. A comparison of the plasma concentration of 25HC3S administered to healthy subjects versus subjects with alcoholic hepatitis is depicted in FIG. 5.

[2] = tested on: patients with alcoholic hepatitis; experiment: Pharmacodynamic signals (Lille score, MELD, bilirubin, survival) in Phase 2a trial; format: in vivo, human
Procedure: As described in more detail below, a total of 19 patients were enrolled into an open-label Phase 2a multi-center trial, of whom 15 had Maddrey's Discriminant Function (MDF) ≥32 (Severe Alcoholic Hepatitis (SAH)), 12 had MELD scores at 21-30, and 11 had baseline serum bilirubin levels >8 mg/dL. All patients received IV infused 25HC3S (at 30, 90, or 150 mg) on Day 1 and Day 4 (if still hospitalized), and were followed for 28-days. The final enrollment was 19 patients comprised of: 8 patients (4 moderate and 4 severe) dosed at 30 mg, 7 patients (3 moderate and 4 severe) dosed at 90 mg, and 4 patients (4 severe) dosed at 150 mg.
• Study Drug A 25HC3S sodium salt solution contained: • 30 mg/mL 25HC3S sodium salt; • 240 mg/mL hydroxypropyl-beta-cyclodextrin; and • 50 mmole phosphate buffer • The 25HC3S sodium salt solution was diluted in 100 mL 5% dextrose or 0.9% sodium chloride infusion solution: • Dose 1: 30 mg of 25HC3S sodium salt in 100 mL 5% dextrose or 0.9% sodium chloride • Dose 2: 90 mg of 25HC3S sodium salt in 100 mL 5% dextrose or 0.9% sodium chloride • Dose 3: 150 mg of 25HC3S sodium salt in 100 mL 5% dextrose or 0.9% sodium chloride • 25HC3S sodium salt was administered by slow intravenous infusion over 2 hrs (50 mL/h) until the entire dose is given at Day 1 and Day 4. If a patient met the hospital discharge criteria prior to the second dose, the patient received only one dose instead of two doses. • Study Procedure The study was conducted in two parts. Part A included patients with MELD scores of 11-20 (moderate AH patients), and Part B included patients with MELD of scores 21-30. The doses of 25HC3S sodium salt administered were 30 mg and 90 mg for Part A and 30 mg, 90 mg and 150 mg for Part B, with 4 patients per dose group per Part (except for only 3 patients in the 90 mg cohort of Part A). All patients were followed to Day 28. • The study started in 4 moderate AH patients (Part A) at 30 mg dose level. After completing the dosing, a Dose Escalation Committee (DEC) reviewed safety, tolerability and pharmacokinetic (PK) data from all 4 patients and determined that it was safe to move forward to dose 4 severe AH patients (Part B) at the same dose level, 30 mg, as well as escalating the dose level to 90 mg in moderate patients (Part A). The same dose escalation procedure was then conducted in Part B until all 4 patients received 150 mg doses. • A flow diagram of the study is depicted in FIG. 2. Each dose cohort enrolled up to 4 subjects. Study subjects received up to 2 doses of 25HC3S sodium salt. The first dose was administered on Day 1 and, if still hospitalized, the second dose was administered on Day 4. A pharmacokinetic (PK) sample was collected at: Time 0 (pre-dose), 1 hour post-dose initiation, 2 hours (end of infusion), 3 hours post-dose initiation, 4 hours post-dose initiation, 8 hours post-dose initiation, 12 hours post-dose initiation, 24-hours post-dose initiation and 50 hours post-dose initiation.
• 1. Patients with alcoholic hepatitis defined in this clinical trial as: • a. History of heavy alcohol abuse: >40 g/day in females or >60 g/day in males for a minimum period of 6 months, AND • b. Consumed alcohol within 12 weeks of entry into the study, AND • c. Serum bilirubin >3 mg/dL AND AST>ALT, but less than 300 U/L, AND • d. MELD score between 11-30, inclusive A listing of the baseline laboratory characteristics of the subjects of each cohort is shown in the Table below. […]

[3] = All patients with 30 or 90 mg (14), Day 7
[4] = Baseline bilirubin >8 mg/dL (11), Day 7
[5] = Baseline bilirubin >8 mg/dL with 30 or 90 mg (8), Day 7
[6] = MELD 21-30 with 30 or 90 mg (8), Day 7
[7] = SAH with 30 or 90 mg (11), Day 7

## C[C@H](CCCC(C)(C)O)[C@H]1CC[C@H]2[C@@H]3CC=C4C[C@@H](OS(=O)(=O)O)CC[C@]4(C)[C@H]3CC[C@]12C [25HC3S, 5-cholesten-3,25-diol, 3-sulfate]
[1]
  V: 55.0 (4.3) L
[1]; human, plasma
  AUC(0-inf): 6190 ng·h/mL
  Cmax: 3100 ng/mL
  clearance: 408 mL/min
[1]; human, plasma, read-out: T½ (converted)
  half-life: 1.6 h
[2]; 18 AH patients who returned for Day 7 visit
  patients with a Lille score below 0.45 (number of patients): 16/18
[2]; 19 patients
  reductions from baseline in bilirubin (day 7 and 28) and MELD (day 28) compared with University of Louisville historical control: statistically significantly greater reductions
[2]; 28-day follow-up period, all patients
  survival rate: 100%
[2]; All Patients (18), Day 7
  Responders (Lille score <0.45): 89%
[2]; [3]
  Lille Median (1st, 3rd quartile): 0.05 (0.04, 0.19)
  Responders (Lille score <0.45): 100%
[2]; [4]
  Lille Median (1st, 3rd quartile): 0.10 (0.05, 0.20)
  Responders (Lille score <0.45): 82%
[2]; [5]
  Lille Median (1st, 3rd quartile): 0.10 (0.05, 0.19)
  Responders (Lille score <0.45): 100%
[2]; Day 7, one or two doses
  serum bilirubin levels: significantly reduced
[2]; Day 28, one or two doses
  MELD scores: significantly reduced
[2]; MELD 21-30 (12), Day 7
  Lille Median (1st, 3rd quartile): 0.19 (0.11, 0.25)
  Responders (Lille score <0.45): 83%
[2]; [6]
  Lille Median (1st, 3rd quartile): 0.19 (0.10, 0.19)
  Responders (Lille score <0.45): 100%
[2]; SAH (15), Day 7
  Lille Median (1st, 3rd quartile): 0.19 (0.05, 0.22)
[2]; SAH patients treated with 30 or 90 mg, Day 28, p=0.01
  median reduction of MELD from baseline: −19.0%
[2]; SAH patients, Day 28, 1 or 2 doses, p=0.01
  MELD score change from baseline: −17.5%
[2]; [7]
  Lille Median (1st, 3rd quartile): 0.12 (0.05, 0.19)
  Responders (Lille score <0.45): 100%
[2]; SAH, MDF≥32 (15), Day 7
  Responders (Lille score <0.45): 87%
[2]; all AH patients (n=18), Day 7
  reduction from baseline of serum total bilirubin levels: −14%
[2]; all patients, including SAH
  survival through 28-day follow-up period: survived
[2]; all subjects administered 30 mg and 90 mg (FIG. 6)
  Lille score at Day 7: less than 0.45
[2]; p<0.0001
  Lille scores compared with published historical data (Louvet et al., 145 AH patients): significantly lower; also recorded: significantly better
[2]; p=0.005
  Lille scores compared with University of Louisville historical control (standard of care): statistically significantly lower
[2]; patients with baseline bilirubin >8.0 mg/dL, Day 7, p=0.02
  serum bilirubin change: −25.1%
[2]; two of the subjects having severe AH administered 150 mg (FIG. 6)
  Lille score at Day 7: greater than 0.45
